{"source": "patent US9630965B2", "about": "“Fused amino pyridine as HSP90 inhibitors” (Curis, Inc., priority 2007, dated 2017)", "target": "HSP90 (Homo sapiens (Human), UniProt P07900)", "assay": "HSP90 competition binding (fluorescence polarization) assay with FITC labeled GM", "conditions": "24 hours of incubation at 4° C.", "description": "(b) HSP90 Competition Binding (Fluorescence Polarization) Assay.\nA fluorescein isothiocyanate (FITC) labeled GM was purchase from InvivoGen (ant-fgl-1). The interaction between HSP90 and labeled GM forms the basis for the fluorescence polarization assay. A free and fast-tumbling FITC labeled GM emits random light with respect to the plane of polarization plane of excited light, resulting in a lower polarization degree (mP) value. When GM is bound to HSP90, the complex tumble slower and the emitted light is polarized, resulting in a higher mP value. […] The assay buffer contained 20 mM HEPES (pH 7.3), 50 mM KCl, 1 mM DTT, 50 mM MgCl2, 20 mM Na2MoO4, 0.01% NP40 with 0.1 mg/ml bovine gamma-globulin."}
{"smiles": "NC(=O)CCCCCn1c(Sc2cc3c(cc2I)OCO3)nc2c(N)nccc21", "note": "[Compound 70, 6-(4-amino-2-(6-iodobenzo[d][1,3]dioxol-5-ylthio)-1H-imidazo[4,5-c]pyridin-1-yl)hexanamide]", "values": [{"measurement": "IC50", "value": "0.1 to 1", "unit": "µM"}]}
{"smiles": "N#CCCCn1c(Sc2cc3c(cc2Br)OCO3)nc2c(N)nccc21", "note": "[Compound 27, 4-(4-amino-2-(6-bromobenzo[d][1,3]dioxol-5-ylthio)-1H-imidazo[4,5-c]pyridin-1-yl)butanenitrile]", "values": [{"measurement": "IC50", "value": "1 to 10", "unit": "µM"}]}
{"smiles": "NC(=O)CCCCn1c(Sc2cc3c(cc2I)OCO3)nc2c(N)nccc21", "note": "[Compound 68, 5-(4-amino-2-(6-iodobenzo[d][1,3]dioxol-5-ylthio)-1H-imidazo[4,5-c]pyridin-1-yl)pentanamide]", "values": [{"measurement": "IC50", "value": "0.1 to 1", "unit": "µM"}]}
{"smiles": "N#CCCCn1c(Sc2cc3c(cc2I)OCO3)nc2c(N)nccc21", "note": "[Compound 28, 4-(4-amino-2-(6-iodobenzo[d][1,3]dioxol-5-ylthio)-1H-imidazo[4,5-c]pyridin-1-yl)butanenitrile]", "values": [{"measurement": "IC50", "value": "0.1 to 1", "unit": "µM"}]}
{"smiles": "CC(=O)NCCCn1c(Sc2cc3c(cc2I)OCO3)nc2c(N)nccc21", "note": "[Compound 74, N-(3-(4-amino-2-(6-iodobenzo[d][1,3]dioxol-5-ylthio)-1H-imidazo[4,5-c]pyridin-1-yl)propyl)acetamide]", "values": [{"measurement": "IC50", "value": "0.1 to 1", "unit": "µM"}]}
{"smiles": "COc1ccc(Br)c(Sc2nc3c(N)nccc3n2CCCNC(C)C)c1", "note": "[Compound 53, 2-(2-bromo-5-methoxyphenylthio)-1-(3-(isopropylamino)propyl)-1H-imidazo[4,5-c]pyridin-4-amine]", "values": [{"measurement": "IC50", "value": "1 to 10", "unit": "µM"}]}
{"smiles": "COc1ccc(I)c(Sc2nc3c(N)nccc3n2CCCNC(C)C)c1", "note": "[Compound 54, 2-(2-iodo-5-methoxyphenylthio)-1-(3-(isopropylamino)propyl)-1H-imidazo[4,5-c]pyridin-4-amine]", "values": [{"measurement": "IC50", "value": "1 to 10", "unit": "µM"}]}
{"smiles": "C#CCCn1c(Sc2cc3c(cc2I)OCO3)nc2c(N)nccc21", "note": "[Compound 23, 1-(but-3-ynyl)-2-(6-iodobenzo[d][1,3]dioxol-5-ylthio)-1H-imidazo[4,5-c]pyridin-4-amine]", "values": [{"measurement": "IC50", "value": "0.1 to 1", "unit": "µM"}]}
{"smiles": "C#CCCCn1c(Sc2cc(O)c(O)cc2I)nc2c(N)nccc21", "note": "[Compound 16, 4-(4-amino-1-(pent-4-ynyl)-1H-imidazo[4,5-c]pyridin-2-ylthio)-5-iodobenzene-1,2-diol]", "values": [{"measurement": "IC50", "value": "> 10", "unit": "µM"}]}
{"smiles": "CCCCCn1c(Sc2cc3c(cc2I)OCO3)nc2c(N)nccc21", "note": "[Compound 4, 2-(6-iodobenzo[d][1,3]dioxol-5-ylthio)-1-pentyl-1H-imidazo[4,5-c]pyridin-4-amine]", "values": [{"measurement": "IC50", "value": "0.1 to 1", "unit": "µM"}]}
{"smiles": "C#CCCn1c(Sc2cc3c(cc2Br)OCO3)nc2c(N)nccc21", "note": "[Compound 22, 2-(6-bromobenzo[d][1,3]dioxol-5-ylthio)-1-(but-3-ynyl)-1H-imidazo[4,5-c]pyridin-4-amine]", "values": [{"measurement": "IC50", "value": "1 to 10", "unit": "µM"}]}
{"smiles": "C#CCCCCn1c(Sc2cc3c(cc2I)OCO3)nc2c(N)nccc21", "note": "[Compound 25, 1-(hex-5-ynyl)-2-(6-iodobenzo[d][1,3]dioxol-5-ylthio)-1H-imidazo[4,5-c]pyridin-4-amine]", "values": [{"measurement": "IC50", "value": "0.1 to 1", "unit": "µM"}]}
{"smiles": "C#CCCCn1c(Sc2cc(F)c(F)cc2I)nc2c(N)nccc21", "note": "[Compound 21, 2-(4,5-difluoro-2-iodophenylthio)-1-(pent-4-ynyl)-1H-imidazo[4,5-c]pyridin-4-amine]", "values": [{"measurement": "IC50", "value": "> 10", "unit": "µM"}]}
{"smiles": "CCC(CC)NCCCn1c(Sc2cc3c(cc2I)OCO3)nc2c(N)nccc21", "note": "[Compound 60, 2-(6-iodobenzo[d][1,3]dioxol-5-ylthio)-1-(3-(pentan-3-ylamino)propyl)-1H-imidazo[4,5-c]pyridin-4-amine]", "values": [{"measurement": "IC50", "value": "0.1 to 1", "unit": "µM"}]}
{"smiles": "N#CCCCCn1c(Sc2cc3c(cc2I)OCO3)nc2c(N)nccc21", "note": "[Compound 30, 5-(4-amino-2-(6-iodobenzo[d][1,3]dioxol-5-ylthio)-1H-imidazo[4,5-c]pyridin-1-yl)pentanenitrile]", "values": [{"measurement": "IC50", "value": "0.1 to 1", "unit": "µM"}]}
{"smiles": "COc1ccc(I)c(Sc2nc3c(N)nccc3n2CCOC(C)C)c1", "note": "[Compound 64, 2-(2-iodo-5-methoxyphenylthio)-1-(2-isopropoxyethyl)-1H-imidazo[4,5-c]pyridin-4-amine]", "values": [{"measurement": "IC50", "value": "1 to 10", "unit": "µM"}]}
